Reference: patent US7091351B2, “Vanadium compounds for treating cancer” (Parker Hughes Institute, priority 1998, dated 2006)

Test system: NALM-6 B-lineage acute lymphoblastic leukemia cells
Test: MTT cytotoxicity assay of vanadocenes, NALM-6 cells
Assay type: cell-based, human
Settings: 24 h
Experimental: Human testicular cancer cell lines, Tera-2 (embryonal carcinoma) and Ntera-2 (pluripotent embryonal carcinoma) were obtained from the American Type Culture Collection (ATCC) (Rockeville, Md.) and propagated in T-25, T-75, or T-150 cm^2 tissue culture flasks (Corning Corp., Corning, N.Y.) in McCoy's 5A medium and Dulbecco's modified Eagle's medium respectively. Both media were supplemented with 10% fetal calf serum (FCS), 4 mM glutamine, 100 U/ml penicillin G, and […] streptomycin sulfate. All tissue culture reagents were obtained from Life Technologies Inc. (GIBCO-BRL), Gaithersburg, Md. Cell lines were cultivated for a minimum of two passages after thawing prior to experimentation. Other cell lines that were used in this study were the human B-lineage acute lymphoblastic leukemia (ALL) cell line NALM-6. Uckun, F. M., Evans, W. E., Forsyth, C. J., Waddick, K. G., Tuel-Ahlgren, L., Chelstrom, L. M., Burkhardt, A., Bolen, J., Myers, D. E. Biotherapy of B-cell precursor leukemia by targeting genistein to CD19-associated tyrosine kinase. Science (Washington DC) 267:886–91, 1995; T-lineage ALL cell line MOLT-3, Waurzyniak, B., Shneider, E. A., Tumer, N., Yanishevski, Y., Gunther, R., Chelstrom, L., Wendorf, H., Myers, D. E., Irvin, J. D., Messinger, Y., Ek, O., Zeren, T., Chandan-Langlie, M., Evans, W. E., Uckun, F. M. In vivo toxicity, pharmacokinetics, and antileukemic activity of TXU (anti-CD7)-pokeweed antiviral protein immunotoxin. Clinical Cancer Research 3:881–890, 1997; AML cell line HL-60, Perentesis, J. P., Waddick, K. G., Bendel, A. E., Shao, Y., Warman, B. E., Chandan-Langlie, M., and Uckun, F. M. Induction of apoptosis in multi-drug resistant andradiation-resistant acute myeloid leukemia cells by a recombinant fusion toxin directed against the granulocyte macrophage colony stimulating factor receptor. Clin. Cancer Res. 3:347–355, 1997; breast cancer cell lines MDA-MB-231 and BT-20, Uckun, F. M., Narla, R. K., Jun, X., Zeren, T., Venkatachalam, T., Waddick, K. G., Rostostev, A., Myers, D. E. Cytotoxic activity of EGF-genstein against breast cancer cells. Clin. Cancer Res. 4:901–912, 1998; glioblastoma cell lines U87 and U373, Narla, R. K., Liu, X., Myers, D. E., and Uckun, F. M. 4-(3′-Bromo-4′hydroxylphenyl)-amino-6,7-dimethoxyquinazoline (WHI-P154): A novel quinazoline derivative with potent cytotoxic activity against human glioblastoma cells. Clin. Cancer Res. 4:1405–1414, 1998.
MTT (3-[4,5-dimethyl thiazol-2-yl]-2,5-diphenyltetrazolium bromide)-based colorimetric assays were used for evaluation of the cytotoxicity of vanadocene compounds. Mosmann, T. Rapid colorimetric assay for cellular growth and survival: application to proliferation and cytotoxicity assays. J. Immunol. Methods, 65: 55–63, 1983. Briefly, cells were harvested with 0.125% (w/v) trypsin-0.02% EDTA (GIBCO-BRL) from exponential-phase maintenance cultures and centrifuged (300 g×5 min). After suspension and counting, cells were dispensed within triplicate 96-well tissue culture plates in 100 μl volumes. After 24 h incubation, the culture medium was discarded and replaced with 100 μl of fresh medium containing serial two-fold dilutions of drugs in medium to yield 1.9 μM to 250 μM. All compounds were reconstituted in DMSO to a concentration of 100 mM, and the stock solution was made fresh for each experiment. Control wells consisted of medium containing 0.25% of DMSO alone were used for solvent control. […]

With `[Cl-].[Cl-].[V+4].c1cc[cH-]c1.c1cc[cH-]c1` [VDC, VCp2Cl2] the IC50 was 19 µM.
